Test results published in ChEMBL document CHEMBL5316293, “Novel Small-Molecule PD-L1 Inhibitor Induces PD-L1 Internalization and Optimizes the Immune Microenvironment” (J Med Chem, 2023).
Calls of active or inactive are those of the source. The rule behind the calls is not given here.

Tests used:
LLC-hPD-L1 [1] = assay: Antitumor activity against humanized mouse LLC-hPD-L1 cells implanted in hPD-1 knockin C57BL/6 mouse assessed as reduction in MDSC cells at 10 to 25 mg/kg, ip administered for 12 days starting from day 7 post tumor implantation by flow cytometry analysis; type: functional, organism-based; conditions: dose 10-25 mg/kg, time 12.0 day
[2] = Toxicity in ICR mouse assessed as reduction in kidney weight at 500 to 5000 mg/kg, po administered via gavage for 2 weeks; type: organism-based; conditions: in vivo, 336 h, dose 500-5000 mg/kg
MC38-hPD-L1 [3] = assay: Antitumor activity against humanized mouse MC38-hPD-L1 cells implanted in hPD-1 knockin C57BL/6 mouse assessed as tumor growth inhibition at 10 mg/kg, ip administered for 12 days starting from day 7 post tumor implantation and measured every 2 days relative to control; type: functional; conditions: MC38-hPD-L1, 288 h, time 12 day, read-out: TGI
[4] = Antitumor activity against humanized mouse LLC-hPD-L1 cells implanted in hPD-1 knockin C57BL/6 mouse assessed as tumor growth inhibition at 25 mg/kg, ip administered for 12 days starting from day 7 post tumor implantation and measured every 2 days relative to control; type: functional; conditions: LLC-hPD-L1, 288 h, time 12 day, read-out: TGI
MC38-hPD-L1 [5] = assay: Antitumor activity against humanized mouse MC38-hPD-L1 cells implanted in hPD-1 knockin C57BL/6 mouse assessed as increase in tumor cell apoptosis by measuring increase in cleaved caspase-3 level at 10 to 25 mg/kg, ip administered for 12 days starting from day 7 post tumor implantation by immunohistochemistry analysis; type: functional, organism-based; conditions: dose 10-25 mg/kg, time 12.0 day
MC38-hPD-L1 [6] = assay: Antitumor activity against humanized mouse MC38-hPD-L1 cells implanted in hPD-1 knockin C57BL/6 mouse assessed as increase in CD69-positive CD137-positive T cells at 10 to 25 mg/kg, ip administered for 12 days starting from day 7 post tumor implantation by flow cytometry analysis; type: functional, organism-based; conditions: dose 10-25 mg/kg, time 12.0 day
[7] = AUC (0 to infinity) in ICR mouse at 5 mg/kg, iv; type: ADME, organism-based; parameters: dose 5 mg/kg, route iv; conditions: in vivo
LLC-hPD-L1 [8] = assay: Antitumor activity against humanized mouse LLC-hPD-L1 cells implanted in hPD-1 knockin C57BL/6 mouse assessed as increase in IFN-gamma level at 10 to 25 mg/kg, ip administered for 12 days starting from day 7 post tumor implantation by flow cytometry analysis; type: functional, organism-based; conditions: dose 10-25 mg/kg, time 12.0 day
[9] = Cmax in ICR mouse at 5 mg/kg, iv; type: ADME, organism-based; parameters: dose 5 mg/kg, route iv; conditions: in vivo
LLC-hPD-L1 [10] = assay: Antitumor activity against humanized mouse LLC-hPD-L1 cells implanted in hPD-1 knockin C57BL/6 mouse assessed as macrophage polarization into M1 phenotype at 25 mg/kg, ip administered for 12 days starting from day 7 post tumor implantation by flow cytometry analysis; type: functional, organism-based; conditions: time 12.0 day
MC38-hPD-L1 [11] = assay: Antitumor activity against humanized mouse MC38-hPD-L1 cells implanted in BALB/c nude mouse assessed as reduction in tumor growth at 10 to 25 mg/kg, ip administered for 10 days starting from day 6 post tumor implantation and measured every 2 days; type: functional, organism-based; conditions: dose 10-25 mg/kg, time 10.0 day
LLC-hPD-L1 [12] = assay: Antitumor activity against humanized mouse LLC-hPD-L1 cells implanted in hPD-1 knockin C57BL/6 mouse assessed as reduction in Treg cells at 10 to 25 mg/kg, ip administered for 12 days starting from day 7 post tumor implantation by flow cytometry analysis; type: functional, organism-based; conditions: dose 10-25 mg/kg, time 12.0 day
[13] = Toxicity in ICR mouse assessed as animal death at 5000 mg/kg, po administered via gavage for 2 weeks; type: organism-based; conditions: in vivo, 336 h
[14] = target: Programmed cell death 1 ligand 1 (Homo sapiens, UniProt Q9NZQ7); assay: Inhibition of PD-1 Fc IgG fusion protein binding to PD-L1 in human NCI-H460 cells incubated for 6 hrs by DAPI/PD-1 anti-human IgG DyLight 488 staining based fluorescence microscopy; type: cell-based
Chain of Programmed cell death 1 ligand 1 (Q9NZQ7 whole entry, the tested form may be a part): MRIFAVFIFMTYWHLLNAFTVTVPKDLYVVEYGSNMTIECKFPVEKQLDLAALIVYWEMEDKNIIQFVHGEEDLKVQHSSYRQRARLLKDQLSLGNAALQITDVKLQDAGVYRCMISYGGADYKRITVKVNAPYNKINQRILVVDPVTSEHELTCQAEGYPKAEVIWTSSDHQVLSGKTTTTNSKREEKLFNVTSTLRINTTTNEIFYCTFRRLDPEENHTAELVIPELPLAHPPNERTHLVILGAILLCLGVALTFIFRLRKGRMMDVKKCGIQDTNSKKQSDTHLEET

A549 = assay: Cytotoxicity against human A549 cells assessed as reduction in tumor proliferation at 10 to 20 uM incubated for 48 hrs by xCELLigence RTCA system analysis; type: functional, cell-based; conditions: dose 10-20 µM
[15] = Toxicity in ICR mouse assessed as reduction in heart weight at 500 to 5000 mg/kg, po administered via gavage for 2 weeks; type: organism-based; conditions: in vivo, 336 h, dose 500-5000 mg/kg
[16] = Half life in ICR mouse at 5 mg/kg, iv; type: ADME, organism-based; conditions: in vivo
LLC-hPD-L1 [17] = assay: Antitumor activity against humanized mouse LLC-hPD-L1 cells implanted in hPD-1 knockin C57BL/6 mouse assessed as increase in M1 macrophages at 10 to 25 mg/kg, ip administered for 12 days starting from day 7 post tumor implantation by flow cytometry analysis; type: functional, organism-based; conditions: dose 10-25 mg/kg, time 12.0 day
MC38-hPD-L1 [18] = assay: Antitumor activity against humanized mouse MC38-hPD-L1 cells implanted in hPD-1 knockin C57BL/6 mouse assessed as increase in GzmB level at 10 to 25 mg/kg, ip administered for 12 days starting from day 7 post tumor implantation by flow cytometry analysis; type: functional, organism-based; conditions: dose 10-25 mg/kg, time 12.0 day
LLC-hPD-L1 [19] = assay: Antitumor activity against humanized mouse LLC-hPD-L1 cells implanted in hPD-1 knockin C57BL/6 mouse assessed as reduction in M2 macrophages at 10 to 25 mg/kg, ip administered for 12 days starting from day 7 post tumor implantation by flow cytometry analysis; type: functional, organism-based; conditions: dose 10-25 mg/kg, time 12.0 day
[20] = Toxicity in hPD-1 knockin C57BL/6 mouse implanted with humanized mouse LLC-hPD-L1 cells assessed as reduction in body weight at 10 to 25 mg/kg, ip administered for 12 days starting from day 7 post tumor implantation and measured every 3 to 4 days; type: organism-based; conditions: in vivo, 288 h, dose 10-25 mg/kg, time 12 day
MC38-hPD-L1 [21] = assay: Antitumor activity against humanized mouse MC38-hPD-L1 cells implanted in hPD-1 knockin C57BL/6 mouse assessed as increase in CD8-positive T cells at 10 to 25 mg/kg, ip administered for 12 days starting from day 7 post tumor implantation by flow cytometry analysis; type: functional, organism-based; conditions: dose 10-25 mg/kg, time 12.0 day

With `COc1cc2c(cc1CN[C@@H](CO)C(=O)O)C(=O)N(c1cccc(-c3ccccc3)c1C)C2=O` the Activity (LLC-hPD-L1 [1]) was “Active”, the Activity [2] was “Non-Toxic” and the inhibition in vivo at 10 mg/kg (MC38-hPD-L1 [3]) was 65.9%. For the same compound, the inhibition in vivo at 25 mg/kg [4] was 81.4%, the Activity (MC38-hPD-L1 [5]) was “Active” and the Activity (MC38-hPD-L1 [6]) was “Active”. The AUC(0-inf) [7] was 3570 ng·h/mL, the Activity (LLC-hPD-L1 [8]) was “Active” and the Cmax [9] was 6290 ng/mL. The Activity (LLC-hPD-L1 [10]) was “Active”, the Activity (MC38-hPD-L1 [11]) was “inactive” and the Activity (LLC-hPD-L1 [12]) was “Active”. The Activity [13] was “Non-Toxic”, the EC50 [14] was 121 nM and the Activity (A549) was “inactive”. For the same compound, the Activity [15] was “Non-Toxic”, the half-life [16] was 9.78 h and the Activity (LLC-hPD-L1 [17]) was “Active”. For the same compound, the Activity (MC38-hPD-L1 [18]) was “Active”, the Activity (LLC-hPD-L1 [19]) was “Active” and the Activity [20] was “Non-Toxic”. The Activity (MC38-hPD-L1 [21]) was “Active”.
